Reference: patent publication US4617314A, “Benzofuran- and benzopyran-carboxamide derivatives” (priority 1983, dated 1986)

Columns and labels:
[1] = test system: rats administered with methamphetamine; assay: Methamphetamine Potentiation Action (lethality increasing effect); assay type: in vivo, rats (male Wistar); conditions: 8 rats/group, methamphetamine hydrochloride 5 mg/kg i.p.
Procedure: Activation effect was construed as lethality increasing effect of a test drug on rats which were administered with methamphetamine at a non-lethal dose every week. Accordingly, it is considered that the greater is the number of rats which died at a lower dose in an earlier week, the activation activity is the higher.
Groups of 8 male Wistar rats weighing above […] were used. Test compounds are intraperitoneally administered and 15 minutes thereafter, 5 mg/kg of methamphetamine hydrochloride was intraperitoneally administered. Number of dead rats within one week was counted. In the 2nd to 4th week, experiment was likewise repeated at one week intervals by the administration of test compounds and methamphetamine hydrochloride.

[2] = in vivo; cited from earlier work
[3] = test system: hypermotility of mice induced by apomorphine; assay: Anti-apomorphine Action (mice): suppression of spontaneous motility; assay type: in vivo, mice (male dd-strain); conditions: Mus musculus, po, 60 min before 0.5 mg/kg apomorphine hydrochloride; 50% suppression of spontaneous motility
Description: (§1) Dopamine antagonism was observed by the antagonism to
(1) hypermotility of mice, and
(§2) induced by the administration of apomorphine to the animals which drug acts on dopamine. The response of (1) is considered to be due to the action of dopamine on the mesolimbic system whereas the response of (2) is regarded mainly as the action of dopamine on the extrapyramidal system. As a consequence, a drug having high selectivity to the antagonism to the response of (1) is deemed to be more useful with less extrapyramidal side effects.
Groups of 5 male dd-strain mice were used. Test compounds were orally administered and 60 minutes thereafter, 0.5 mg/kg of apomorphine hydrochloride was intracutaneously administered. Immediately thereafter, spontaneous motility of the mice was measured with the aid of Animex (manufactured by Columbus Company, U.S.A.) for 20 minutes. The procedure was repeated three times with respective groups. The dose of test compounds required for 50% suppression of spontaneous motility of control group was graphically intraporated and determined as ED50 value.

[4] = in vivo, po; cited from earlier work
[5] = test system: extrapyramidal system; conditions: cited from earlier work
[6] = test system: stereotyped behavior of rats induced by apomorphine; assay: Anti-apomorphine Action (rats): suppression of gnawing (stereotyped) behavior; assay type: in vivo, rats (female Wistar); conditions: Rattus norvegicus, po, 60 min before 1.25 mg/kg i.v. apomorphine hydrochloride; 50% suppression of gnawing behavior; probit
Description: as §1
(2) stereotyped behavior of rats
as §2
Groups of 7 female Wistar rats were used. Test compounds were orally administered, 60 minutes thereafter, apomorphine hydrochloride was intravenously administered at a dosage of 1.25 mg/kg. After 5 minutes and 20 minutes, respectively, whether gnawing behavior (stereotyped behavior) appears or not during the period of 5 minutes was observed. The dose of test compounds required for 50% suppression of the appearance was evaluated as ED50 value by probit method.

## CCN1CCCC1CNC(=O)c1cc(S(N)(=O)=O)ccc1OC (stereo not drawn) [Sulpyride, reference compound]
[1]; 1st Week, 20 mg/kg
  Methamphetamine Potentiation Action, Number of Dead Animal, Total Number: 0
[1]; 1st Week, 40 mg/kg
  Methamphetamine Potentiation Action, Number of Dead Animal, Total Number: 0
[1]; 1st Week, 80 mg/kg
  Methamphetamine Potentiation Action, Number of Dead Animal, Total Number: 2
[1]; 2nd Week, 20 mg/kg
  Methamphetamine Potentiation Action, Number of Dead Animal, Total Number: 0
[1]; 2nd Week, 40 mg/kg
  Methamphetamine Potentiation Action, Number of Dead Animal, Total Number: 0
[1]; 2nd Week, 80 mg/kg
  Methamphetamine Potentiation Action, Number of Dead Animal, Total Number: 3
[1]; 3rd Week, 20 mg/kg
  Methamphetamine Potentiation Action, Number of Dead Animal, Total Number: 0
[1]; 3rd Week, 40 mg/kg
  Methamphetamine Potentiation Action, Number of Dead Animal, Total Number: 1
[1]; 3rd Week, 80 mg/kg
  Methamphetamine Potentiation Action, Number of Dead Animal, Total Number: 3
[1]; 4th Week, 20 mg/kg
  Methamphetamine Potentiation Action, Number of Dead Animal, Total Number: 0
[1]; 4th Week, 40 mg/kg
  Methamphetamine Potentiation Action, Number of Dead Animal, Total Number: 1
[1]; 4th Week, 80 mg/kg
  Methamphetamine Potentiation Action, Number of Dead Animal, Total Number: 3
[2]
  crossing of blood-brain barrier: difficult to cross blood-brain barrier
[3]
  ED50: 330 mg/kg
[4]
  uptake rate in living organisms: low uptake rate
[5]; as opposed to butyrophenone-series (haloperidol) or phenothiazine-series (chlorpromazine) compounds
  cataleptogenic activity: weak
[5]; in vivo
  side effects on the extrapyramidal system: less side effects
[6]
  ED50: > 500 mg/kg
